Test system: HBV
Experiment: HBV-DNA Antiviral Assay Using HepG2.117 Cells (intracellular HBV DNA by qPCR)
Type: cell-based, hepatitis B virus (genotype D)
Conditions: Hepatitis B virus, HepG2.117
Method in brief: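 Endpoint: qPCR copy number of intracellular HBV DNA after 3-day compound exposure, with inhibition set relative to the 2% DMSO control. The cells were doxycycline-free HepG2.117 carrying a Tet-off genotype D genome, dosed at nine 4-fold dilutions. A duplicate plate gave ATP-based viability (CC50).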

SMILES	EC50 [nM]
CC(C)Oc1ccc(-n2c(C(=O)NCc3ccccc3)c3n(c2=O)CCN(C(=O)c2ccc(Br)c(Cl)c2)C3)cc1 [Example 184, N-benzyl-7-(4-bromo-3-chloro-benzoyl)-2-(4-isopropoxyphenyl)-3-oxo-6,8-dihydro-5H-imidazo[1,5-a]pyrazine-1-carboxamide]	100 to 500
COc1ccc(CNC(=O)c2c3n(c(=O)n2-c2ccc(OC(C)C)cc2)CCN(C(=O)c2ccc(Br)c(Cl)c2)C3)cc1 [Example 185, 7-(4-bromo-3-chloro-benzoyl)-2-(4-isopropoxyphenyl)-N-[(4-methoxyphenyl)methyl]-3-oxo-6,8-dihydro-5H-imidazo[1,5-a]pyrazine-1-carboxamide]	100 to 500
CCS(=O)(=O)c1cccc(CNC(=O)c2c3n(c(=O)n2-c2ccc(OC(C)C)cc2)CCN(C(=O)c2ccc(Br)c(Cl)c2)C3)c1 [Example 186, 7-(4-bromo-3-chloro-benzoyl)-N-[(3-ethylsulfonylphenyl)methyl]-2-(4-isopropoxyphenyl)-3-oxo-6,8-dihydro-5H-imidazo[1,5-a]pyrazine-1-carboxamide]	500 to 5000
COc1ccc(-n2c(C(=O)NCc3ccccn3)c3n(c2=O)CCN(C(=O)c2ccc(Br)c(Cl)c2)C3)cc1 [Example 191, 7-(4-bromo-3-chloro-benzoyl)-2-(4-methoxyphenyl)-3-oxo-N-(2-pyridylmethyl)-6,8-dihydro-5H-imidazo[1,5-a]pyrazine-1-carboxamide]	500 to 5000
COc1ccc(-n2c(C(=O)NCc3ccc(=O)[nH]c3)c3n(c2=O)CCN(C(=O)c2ccc(Br)c(Cl)c2)C3)cc1 [Example 192, 7-(4-bromo-3-chloro-benzoyl)-2-(4-methoxyphenyl)-3-oxo-N-[(6-oxo-1H-pyridin-3-yl)methyl]-6,8-dihydro-5H-imidazo[1,5-a]pyrazine-1-carboxamide]	> 5000
O=C(NCc1ccccc1)c1c2n(c(=O)n1-c1ccccc1)CCN(C(=O)c1ccc(Br)c(Cl)c1)C2 [Example 195, N-benzyl-7-(4-bromo-3-chloro-benzoyl)-3-oxo-2-phenyl-6,8-dihydro-5H-imidazo[1,5-a]pyrazine-1-carboxamide]	500 to 5000
CCOC(=O)Cc1ccc(CNC(=O)c2c3n(c(=O)n2-c2ccc(OC)cc2)CCN(C(=O)c2ccc(Br)c(Cl)c2)C3)cc1 [Example 196, ethyl 2-[4-[[[7-(4-bromo-3-chloro-benzoyl)-2-(4-methoxyphenyl)-3-oxo-6,8-dihydro-5H-imidazo[1,5-a]pyrazine-1-carbonyl]amino]methyl]phenyl]acetate]	> 5000
CC(C)Oc1ccc(-n2c(-c3ncc(-c4ccccc4)o3)c3n(c2=O)CCN(C(=O)c2ccc(Br)c(Cl)c2)C3)cc1 [Example 197, 7-(4-bromo-3-chloro-benzoyl)-2-(4-isopropoxyphenyl)-1-(5-phenyloxazol-2-yl)-6,8-dihydro-5H-imidazo[1,5-a]pyrazin-3-one]	> 5000
COc1ccc(-n2c(C(=O)NCc3ccc(OCC(=O)O)cc3)c3n(c2=O)CCN(C(=O)c2ccc(Br)c(Cl)c2)C3)cc1 [Example 204, 2-[4-[[[7-(4-bromo-3-chloro-benzoyl)-2-(4-methoxyphenyl)-3-oxo-6,8-dihydro-5H-imidazo[1,5-a]pyrazine-1-carbonyl]amino]methyl]phenoxy]acetic acid]	> 5000
COc1ccc(-n2c(C(=O)NCc3ccc(OCC(N)=O)cc3)c3n(c2=O)CCN(C(=O)c2ccc(Br)c(Cl)c2)C3)cc1 [Example 205, N-[[4-(2-amino-2-oxo-ethoxy)phenyl]methyl]-7-(4-bromo-3-chloro-benzoyl)-2-(4-methoxyphenyl)-3-oxo-6,8-dihydro-5H-imidazo[1,5-a]pyrazine-1-carboxamide]	500 to 5000
COc1ccc(-n2c(C(=O)NCc3ccc(OC)cc3C3CC3)c3n(c2=O)CCN(C(=O)c2ccc(Br)c(Cl)c2)C3)cc1 [Example 210, 7-(4-bromo-3-chloro-benozyl)-N-[(2-cyclopropyl-4-methoxy-phenyl)methyl]-2-(4-methoxyphenyl)-3-oxo-6,8-dihydro-5H-imidazo[1,5-a]pyrazine-1-carboxamide]	100 to 500
COc1cc(CNC(=O)c2c3n(c(=O)n2-c2ccc(OC(C)C)cc2)CCN(C(=O)c2ccc(Br)c(Cl)c2)C3)ccc1C#N [Example 211, 7-(4-bromo-3-chloro-benzoyl)-N-[(4-cyano-3-methoxy-phenyl)methyl]-2-(4-isopropxoyphenyl)-3-oxo-6,8-dihydro-5H-imidazo[1,5-a]pyrazine-1-carboxamide]	500 to 5000
CC(C)Oc1ccc(-n2c(C(=O)NCc3ccc(C#N)cc3F)c3n(c2=O)CCN(C(=O)c2ccc(Br)c(Cl)c2)C3)cc1 [Example 212, 7-(4-bromo-3-chloro-benzoyl)-N-[(4-cyano-2-fluoro-phenyl)methyl]-2-(4-isopropoxyphenyl)-3-oxo-6,8-dihydro-5H-imidazo[1,5-a]pyrazine-1-carboxamide]	100 to 500
COc1ccc(-n2c(C(=O)NCc3ccc(CC(=O)O)cc3)c3n(c2=O)CCN(C(=O)c2ccc(Br)c(Cl)c2)C3)cc1 [Example 215, 2-[4-[[[7-(4-bromo-3-chloro-benzoyl)-2-(4-methoxyphenyl)-3-oxo-6,8-dihydro-5H-imidazo[1,5-a]pyrazine-1-carbonyl]amino]methyl]phenyl]acetic acid]	> 5000
CC(C)Oc1ccc(-n2c(C(=O)NCc3ccccc3)c3n(c2=O)CCN(C(=O)/C=C/c2ccccc2Cl)C3)cc1 [Example 216, N-benzyl-7-[(E)-3-(2-chloropehnyl)prop-2-enoyl]-2-(4-isopropoxyphenyl)-3-oxo-6,8-dihydro-5H-imidazo[1,5-a]pyrazine-1-carboxamide]	> 5000
CC(C)Oc1ccc(-n2c(C(=O)NCc3ccccc3)c3n(c2=O)CCN(C(=O)c2ccc(Br)c(C#N)c2)C3)cc1 [Example 217, N-benzyl-7-(4-bromo-3-cyano-benzoyl)-2-(4-isopropoxyphenyl)-3-oxo-6,8-dihydro-5H-imidazo[1,5-a]pyrazine-1-carboxamide]	500 to 5000
COc1ccc(CNC(=O)c2c3n(c(=O)n2-c2ccc(OC(C)C)cc2)CCN(C(=O)c2ccc(Br)c(Cl)c2)C3)c(F)c1 [Example 218, 7-(4-bromo-3-chloro-benzoyl)-N-[(2-fluoro-4-methoxy-phenyl)methyl]-2-(4-isopropoxyphenyl)-3-oxo-6,8-dihydro-5H-imdiazo[1,5-a]pyrazine-1-carboxamide]	< 100
CC(C)Oc1ccc(-n2c(C(=O)NCc3ccc4[nH]cnc4c3)c3n(c2=O)CCN(C(=O)c2ccc(Br)c(Cl)c2)C3)cc1 [Example 219, N-(1H-benzimidazol-5-ylmethyl)-7-(4-bromo-3-chloro-benzoyl)-2-(4-isopropoxyphenyl)-3-oxo-6,8-dihdyro-5H-imidazo[1,5-a]pyrazine-1-carboxamide]	500 to 5000
CC(C)Oc1ccc(-n2c(C(=O)NCc3ccc4occc4c3)c3n(c2=O)CCN(C(=O)c2ccc(Br)c(Cl)c2)C3)cc1 [Example 220, N-(benzofuran-5-ylmethyl)-7-(4-bromo-3-chloro-benzoyl)-2-(4-isopropoxyphenyl)-3-oxo-6,8-dihydro-5H-imidazo[1,5-a]pyrazine-1-carboxamide]	> 5000
CC(C)Oc1ccc(-n2c(C(=O)NCc3ccc(CO)cc3)c3n(c2=O)CCN(C(=O)c2ccc(Br)c(Cl)c2)C3)cc1 [Example 221, 7-(4-bromo-3-chloro-benzoyl)-N-[[4-(hydroxymethyl)phenyl]methyl]-2-(4-isopropoxyphenyl)-3-oxo-6,8-dihydro-5H-imidazo[1,5-a]pyrazine-1-carboxamide]	> 5000
CC(C)Oc1ccc(-n2c(C(=O)NCc3ccccc3C(N)=O)c3n(c2=O)CCN(C(=O)c2ccc(Br)c(Cl)c2)C3)cc1 [Example 222, 7-(4-bromo-3-chloro-benozyl)-N-[(2-carbamoylphenyl)methyl]-2-(4-isopropoxyphenyl)-3-oxo-6,8-dihydro-5H-imidazo[1,5-a]pyrazine-1-carboxamide]	> 5000
CC(C)Oc1ccc(-n2c(C(=O)NCc3ccccc3)c3n(c2=O)CCN(C(=O)c2ccc(Br)nc2)C3)cc1 [Example 223, N-benzyl-7-(6-bromopyridine-3-carbonyl)-2-(4-isopropoxyphenyl)-3-oxo-6,8-dihydro-5H-imidazo[1,5-a]pyrazine-1-carboxamide]	> 5000
CC(C)Oc1ccc(-n2c(C(=O)NCc3ccccc3)c3n(c2=O)CCN(C(=O)c2cc4c(Cl)cccc4s2)C3)cc1 [Example 224, N-benzyl-7-(4-chlorobenzothiophene-2-carbonyl)-2-(4-isopropoxyphenyl)-3-oxo-6,8-dihydro-5H-imidazo[1,5-a]pyrazine-1-carboxamide]	> 5000
CC(C)Oc1ccc(-n2c(C(=O)NCc3ccccc3)c3n(c2=O)CCN(C(=O)/C=C/c2cccc(Cl)c2Cl)C3)cc1 [Example 226, N-benzyl-7-[(E)-3-(2,3-dichlorophenyl)prop-2-enoyl]-2-(4-isopropoxyphenyl)-3-oxo-6,8-dihydro-5H-imidazo[1,5-a]pyrazine-1-carboxamide]	> 5000
CC(C)Oc1ccc(-n2c(C(=O)NCc3ccc(S(C)(=O)=O)cc3)c3n(c2=O)CCN(C(=O)c2ccc(Br)c(Cl)c2)C3)cc1 [Example 227, 7-(4-bromo-3-chloro-benzoyl)-2-(4-isopropoxypehnyl)-N-[(4-methylsulfonylphenyl)methyl]-3-oxo-6,8-dihydro-5H-imidazo[1,5-a]pyrazine-1-carboxamide]	500 to 5000
COc1ccc(CNC(=O)c2c3n(c(=O)n2-c2ccc(OC(C)C)cc2)CCN(C(=O)c2ccc(Br)c(Cl)c2)C3)c(OC)c1 [Example 228, 7-(4-bromo-3-chloro-benzoyl)-N-[(2,4-dimethoxypehnyl)methyl]-2-(4-isopropoxyphenyl)-3-oxo-6,8-dihydro-5H-imidazo[1,5-a]pyrazine-1-carboxamide]	100 to 500
COc1ccc(CNC(=O)c2c3n(c(=O)n2-c2ccc(OCC(F)(F)F)cc2)CCN(C(=O)c2ccc(Br)c(Cl)c2)C3)c(OC)c1 [Example 229, 7-(4-bromo-3-chloro-benozyl)-N-[(2,4-dimethoxyphenyl)methyl]-3-oxo-2-[4-(2,2,2-trifluoroethoxy)phenyl]-6,8-dihydro-5H-imidazo[1,5-a]pyrazine-1-carboxamide]	< 100
